Patent US20130280391A1, “ANTI-MICROBIAL WASH COMPOSITIONS INCLUDING CERAGENIN COMPOUNDS AND METHODS OF USE FOR TREATING NON-MEAT FOOD PRODUCTS” (BRIGHAM YOUNG UNIVERSITY, priority 2012, published 2013)

Key:
Salmonella bacteria = test: Example 2: killing of Salmonella inoculated on food product samples by dip in wash composition; format: cell-based; details: 30 second dip; for level of Salmonella bacteria in the rinsate: positive control nearly 10^3.5 CFUs/mL
Experimental: (§1) Example 2 was performed to determine the effectiveness of an anti-microbial wash composition including a ceragenin compound in controlling growth of Salmonella bacteria by fighting off a Salmonella inoculation. Example 3 was similarly performed to determine the effectiveness of the wash composition in controlling growth of Campylobacter bacteria by fighting off a Campylobacter inoculation. Examples 2 and 3 simulate the effectiveness of the present anti-microbial wash compositions to kill Salmonella and Campylobacter on a food product where the food product has become contaminated with Salmonella bacteria or Campylobacter bacteria.
(§2) A total of 15 food product samples were used for these tests. The 15 samples were divided into five groups of three each. Three samples were left untreated to serve as a negative control in order to observe natural levels of bacteria present on the samples. The remaining 12 samples were then inoculated with 1 mL of Salmonella and 1 mL of Campylobacter. The samples were allowed to dry for 20 minutes in order for the bacteria to adhere to the surface of the food product samples. One group of three of the inoculated samples, designated the positive control, were then rinsed with a wash composition including no anti-microbial agent to determine the level of bacteria after inoculation.
(§3) Each sample was withdrawn after 30 seconds. […] Each sample was withdrawn after 30 seconds. The fifth group of three inoculated samples was dipped one by one into a comparative proprietary non-CSA wash composition. Each of the samples was then rinsed, and the rinsate was collected to determine the levels and types of bacteria from each group. […] In other words, there were no changes to color, texture, taste, or smell, as a result of application of the ceragenin wash compositions.
In other words, the wash composition including 500 ppm ceragenin compound killed 100% of Salmonella bacteria present.

Campylobacter bacteria = test: Example 3: killing of Campylobacter inoculated on food product samples by dip in wash composition; format: cell-based; details: 30 second dip; for log reduction of Campylobacter: versus positive control
Experimental: as §1, §2, §3
In other words, the treatment was effective in killing 93.7% of the Campylobacter bacteria. […] In other words, the treatment was effective in killing 80% of the Campylobacter bacteria.

[1] = 1000 ppm by weight aqueous wash

## CCCCCCCCOC(=O)CC[C@@H](C)[C@H]1CC[C@H]2[C@@H]3[C@H](OC(=O)CCN)C[C@@H]4C[C@H](OC(=O)CCN)CC[C@]4(C)[C@H]3C[C@H](OC(=O)CCN)[C@]12C [CSA-44]
Salmonella bacteria; 500 ppm by weight aqueous wash
  Salmonella bacteria killed: 100%
  level of Salmonella bacteria in the rinsate: no detectable level of Salmonella bacteria
Salmonella bacteria; [1]
  level of Salmonella bacteria in the rinsate: no detectable level of Salmonella bacteria
Campylobacter bacteria; 500 ppm by weight aqueous wash
  Campylobacter bacteria killed: 93.7%
  log reduction of Campylobacter: 1.2 log
Campylobacter bacteria; [1]
  Campylobacter bacteria killed: 80%
  log reduction of Campylobacter: 0.8 log
